Conditions: Gas, Hot wire method

COC [dimethyl ether]
Conditions	thermal conductivity [W/m/K]
266.62 K, 148.1 kPa	0.01348
267.77 K, 148.1 kPa	0.01359
268.94 K, 148.1 kPa	0.01363
276.2 K, 155.8 kPa	0.01468
276.2 K, 207.5 kPa	0.01475
277.09 K, 207.5 kPa	0.01483
277.12 K, 155.8 kPa	0.01476
278.14 K, 155.8 kPa	0.01482
278.17 K, 207.5 kPa	0.01489
285.91 K, 253.2 kPa	0.01594
286.05 K, 144.6 kPa	0.01592
286.67 K, 253.2 kPa	0.016
286.89 K, 144.6 kPa	0.01605
287.68 K, 253.2 kPa	0.01614
287.99 K, 144.6 kPa	0.01606
295.96 K, 253.2 kPa	0.01725
296.02 K, 352.9 kPa	0.01726
296.03 K, 154.5 kPa	0.01715
296.69 K, 352.9 kPa	0.01736
296.76 K, 253.2 kPa	0.01733
296.8 K, 154.5 kPa	0.01728
297.39 K, 352.9 kPa	0.0174
297.64 K, 253.2 kPa	0.01739
297.76 K, 154.5 kPa	0.01734
305.64 K, 155.2 kPa	0.01827
305.64 K, 502.4 kPa	0.01848
305.8 K, 352.8 kPa	0.01842
306.69 K, 155.2 kPa	0.01839
306.69 K, 502.4 kPa	0.01861
306.8 K, 352.8 kPa	0.01854
307.53 K, 155.2 kPa	0.01852
307.53 K, 502.4 kPa	0.01872
307.82 K, 352.8 kPa	0.01861
315.68 K, 496.3 kPa	0.01958
315.77 K, 348.9 kPa	0.01952
316.05 K, 153.9 kPa	0.01955
316.35 K, 700.4 kPa	0.02006
316.55 K, 496.3 kPa	0.01971
316.56 K, 700.4 kPa	0.01992
316.75 K, 348.9 kPa	0.01967
317.06 K, 153.9 kPa	0.01957
317.2 K, 700.4 kPa	0.01999
317.63 K, 496.3 kPa	0.01983
317.81 K, 348.9 kPa	0.01977
318.26 K, 153.9 kPa	0.01971
325.16 K, 1120.2 kPa	0.02135
325.31 K, 883.7 kPa	0.02119
325.41 K, 701.6 kPa	0.02104
325.53 K, 500.8 kPa	0.02091
325.64 K, 348 kPa	0.0208
325.83 K, 151.5 kPa	0.02082
325.88 K, 1120.2 kPa	0.02135
326.11 K, 883.7 kPa	0.02133
326.2 K, 701.6 kPa	0.02113
326.36 K, 500.8 kPa	0.021
326.53 K, 348 kPa	0.02093
326.73 K, 1120.2 kPa	0.02156
326.79 K, 151.5 kPa	0.02087
326.99 K, 883.7 kPa	0.02145
327.16 K, 701.6 kPa	0.02125
327.38 K, 500.8 kPa	0.02116
327.53 K, 348 kPa	0.02098
327.88 K, 151.5 kPa	0.02094
335.18 K, 1196.9 kPa	0.02256
335.35 K, 898.7 kPa	0.02238
335.43 K, 705.2 kPa	0.02212
335.48 K, 353.4 kPa	0.02197
335.54 K, 505.2 kPa	0.02204
335.66 K, 152.2 kPa	0.02198
335.88 K, 1196.9 kPa	0.02272
336.11 K, 898.7 kPa	0.02244
336.23 K, 705.2 kPa	0.02226
336.32 K, 353.4 kPa	0.02209
336.37 K, 505.2 kPa	0.02217
336.45 K, 1196.9 kPa	0.0228
336.55 K, 152.2 kPa	0.02211
336.74 K, 898.7 kPa	0.0225
336.91 K, 705.2 kPa	0.02231
337.06 K, 505.2 kPa	0.02229
337.25 K, 353.4 kPa	0.02223
337.54 K, 152.2 kPa	0.02207
345.11 K, 1503.9 kPa	0.02418
345.23 K, 1200.4 kPa	0.0239
345.35 K, 897.3 kPa	0.02352
345.47 K, 700 kPa	0.02344
345.57 K, 502.5 kPa	0.02341
345.59 K, 1503.9 kPa	0.02427
345.67 K, 352.7 kPa	0.02338
345.74 K, 1200.4 kPa	0.02399
345.88 K, 154.3 kPa	0.02322
345.9 K, 897.3 kPa	0.02363
346.03 K, 700 kPa	0.0235
346.12 K, 1503.9 kPa	0.0244
346.15 K, 502.5 kPa	0.02351
346.26 K, 352.7 kPa	0.0234
346.29 K, 1200.4 kPa	0.02408
346.49 K, 897.3 kPa	0.02372
346.52 K, 154.3 kPa	0.02324
346.64 K, 700 kPa	0.02364
346.82 K, 502.5 kPa	0.02361
346.93 K, 352.7 kPa	0.0235
347.27 K, 154.3 kPa	0.02327
354.82 K, 2226 kPa	0.02637
355.11 K, 1777.8 kPa	0.02567
355.2 K, 1497.3 kPa	0.02536
355.22 K, 2226 kPa	0.02653
355.33 K, 1194.9 kPa	0.02506
355.47 K, 872.5 kPa	0.02483
355.55 K, 701.6 kPa	0.02472
355.58 K, 1777.8 kPa	0.02592
355.64 K, 504.3 kPa	0.02468
355.66 K, 2226 kPa	0.02632
355.69 K, 1497.3 kPa	0.02553
355.74 K, 356.1 kPa	0.02462
355.82 K, 1194.9 kPa	0.02508
355.89 K, 156.1 kPa	0.02441
355.97 K, 872.5 kPa	0.02489
356.09 K, 1777.8 kPa	0.02597
356.1 K, 701.6 kPa	0.02489
356.2 K, 504.3 kPa	0.02488
356.21 K, 1497.3 kPa	0.02554
356.31 K, 356.1 kPa	0.02481
356.38 K, 1194.9 kPa	0.02516
356.52 K, 156.1 kPa	0.02447
356.57 K, 872.5 kPa	0.02502
356.72 K, 701.6 kPa	0.0249
356.86 K, 504.3 kPa	0.02485
356.98 K, 356.1 kPa	0.02475
357.23 K, 156.1 kPa	0.02456
364.94 K, 2198.1 kPa	0.02782
365.09 K, 1801.9 kPa	0.02689
365.2 K, 1500.1 kPa	0.0265
365.3 K, 1202 kPa	0.02622
365.42 K, 906.2 kPa	0.02606
365.51 K, 697.2 kPa	0.02598
365.51 K, 2198.1 kPa	0.02789
365.59 K, 481.6 kPa	0.026
365.68 K, 346.3 kPa	0.02589
365.7 K, 1801.9 kPa	0.0271
365.81 K, 1500.1 kPa	0.02669
365.86 K, 156.4 kPa	0.02596
365.94 K, 1202 kPa	0.02635
365.99 K, 2198.1 kPa	0.02796
366.1 K, 906.2 kPa	0.02615
366.2 K, 697.2 kPa	0.02609
366.23 K, 1801.9 kPa	0.02723
366.31 K, 481.6 kPa	0.02599
366.35 K, 1500.1 kPa	0.02675
366.42 K, 346.3 kPa	0.02597
366.52 K, 1202 kPa	0.02642
366.66 K, 156.4 kPa	0.02591
366.7 K, 906.2 kPa	0.02622
366.82 K, 697.2 kPa	0.02608
366.96 K, 481.6 kPa	0.02612
367.09 K, 346.3 kPa	0.02604
367.38 K, 156.4 kPa	0.02597
374.95 K, 2704.4 kPa	0.03029
375.17 K, 2197.8 kPa	0.02893
375.29 K, 1766.8 kPa	0.02826
375.36 K, 1499.6 kPa	0.02784
375.46 K, 892.8 kPa	0.02733
375.49 K, 1198.6 kPa	0.02756
375.49 K, 2704.4 kPa	0.03041
375.54 K, 707.6 kPa	0.02738
375.63 K, 507.4 kPa	0.02734
375.72 K, 354 kPa	0.02727
375.76 K, 2197.8 kPa	0.0291
375.9 K, 152.4 kPa	0.02713
375.92 K, 1766.8 kPa	0.02831
375.95 K, 2704.4 kPa	0.03051
375.97 K, 1499.6 kPa	0.02793
376.14 K, 892.8 kPa	0.02756
376.17 K, 1198.6 kPa	0.0277
376.22 K, 707.6 kPa	0.02749
376.28 K, 2197.8 kPa	0.02917
376.35 K, 507.4 kPa	0.02737
376.45 K, 354 kPa	0.02739
376.46 K, 1766.8 kPa	0.02837
376.56 K, 1499.6 kPa	0.02791
376.68 K, 152.4 kPa	0.02726
376.72 K, 892.8 kPa	0.02758
376.75 K, 1198.6 kPa	0.02773
376.81 K, 707.6 kPa	0.02751
376.96 K, 507.4 kPa	0.0274
377.08 K, 354 kPa	0.02742
377.4 K, 152.4 kPa	0.0273
384.94 K, 3297.7 kPa	0.03329
385.16 K, 2700.7 kPa	0.03115
385.35 K, 2197 kPa	0.02995
385.44 K, 3297.7 kPa	0.03354
385.48 K, 1805.7 kPa	0.02946
385.56 K, 1500.6 kPa	0.02919
385.66 K, 1201.3 kPa	0.02897
385.74 K, 2700.7 kPa	0.03126
385.77 K, 899.9 kPa	0.02885
385.93 K, 503.9 kPa	0.02857
385.95 K, 703 kPa	0.0288
385.98 K, 2197 kPa	0.0301
386 K, 3297.7 kPa	0.03358
386.01 K, 355.6 kPa	0.02861
386.13 K, 1805.7 kPa	0.02959
386.2 K, 156.6 kPa	0.02852
386.22 K, 1500.6 kPa	0.02926
386.33 K, 1201.3 kPa	0.02917
386.38 K, 2700.7 kPa	0.03136
386.48 K, 899.9 kPa	0.02895
386.5 K, 2197 kPa	0.03017
386.6 K, 703 kPa	0.02886
386.65 K, 503.9 kPa	0.02873
386.65 K, 1805.7 kPa	0.02964
386.74 K, 1500.6 kPa	0.02936
386.79 K, 355.6 kPa	0.02867
386.93 K, 1201.3 kPa	0.02916
387.03 K, 156.6 kPa	0.02858
387.08 K, 899.9 kPa	0.02903
387.21 K, 703 kPa	0.02901
387.32 K, 503.9 kPa	0.02881
387.44 K, 355.6 kPa	0.02881
387.74 K, 156.6 kPa	0.02859

N#N [nitrogen]
Conditions	thermal conductivity [W/m/K]
235.41 K, 3405.4 kPa	0.02334
235.72 K, 3405.4 kPa	0.02333
255.55 K, 5432.8 kPa	0.026
255.7 K, 1281.1 kPa	0.02332
255.86 K, 5432.8 kPa	0.02596
256.26 K, 1281.1 kPa	0.02323
275.39 K, 5057.3 kPa	0.02674
275.41 K, 1027.7 kPa	0.02441
276.05 K, 5057.3 kPa	0.0269
276.11 K, 1027.7 kPa	0.02435
295.15 K, 1844.1 kPa	0.02606
295.25 K, 4380.8 kPa	0.02731
295.68 K, 1844.1 kPa	0.02599
295.92 K, 4380.8 kPa	0.02738
325.32 K, 716 kPa	0.02758
325.43 K, 2042.9 kPa	0.02842
326.2 K, 2042.9 kPa	0.02845
326.23 K, 4941.8 kPa	0.02961
326.39 K, 716 kPa	0.02763

— the NIST ThermoML archive (doi:10.1021/je050305z)
